Assay results: US20130252930A1 (BIOMARIN PHARMACEUTICAL INC., priority 2010, published 2013)
Like-named read-outs stand apart in the source and are kept apart here.

What was measured:
[1] = target: T1, CYP17 (human testicular microsome) (Homo sapiens, UniProt P05093); assay: CYP17 enzymatic assay (IC50) (Biological Example 4); format: biochemical; settings: human testicular microsome
T1 construct: using microsomal fraction from human testis (Celsis Cat #S00110) as the enzyme source; tissue Celsis S00110; host or cells: human testis microsomal fraction
T1 sequence (P05093 1-508): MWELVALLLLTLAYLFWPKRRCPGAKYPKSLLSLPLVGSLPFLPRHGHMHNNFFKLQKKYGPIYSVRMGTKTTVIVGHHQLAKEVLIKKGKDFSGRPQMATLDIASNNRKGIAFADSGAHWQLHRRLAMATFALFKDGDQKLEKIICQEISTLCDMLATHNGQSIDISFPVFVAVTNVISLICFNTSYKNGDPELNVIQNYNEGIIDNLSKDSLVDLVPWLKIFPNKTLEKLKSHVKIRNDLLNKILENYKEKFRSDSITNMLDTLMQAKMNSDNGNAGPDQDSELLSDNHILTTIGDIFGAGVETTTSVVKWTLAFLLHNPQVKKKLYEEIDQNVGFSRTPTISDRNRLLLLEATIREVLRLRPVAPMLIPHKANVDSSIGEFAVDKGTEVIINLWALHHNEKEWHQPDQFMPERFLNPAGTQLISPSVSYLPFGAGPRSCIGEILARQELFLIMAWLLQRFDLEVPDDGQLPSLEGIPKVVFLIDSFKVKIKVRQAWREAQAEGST

[2] = target: T1, CYP17 (human testicular microsome); assay: CYP17 enzymatic assay (% inhibition at 10 nM), version 1 (Biological Example 5); format: biochemical; settings: 10 nM compound, DHEA by ELISA, read-out: Biological Example No. 5: CYP17 percent inhibition at 10 nM (version 1)
CYP17 (H295R cells) = target: T2, CYP17 (H295R cells) (Homo sapiens, UniProt P05093); assay: CYP17 cellular assay (IC50), testosterone in H295R cells (Biological Example 7); format: cell-based; settings: H295R cells
T2 construct: endogenous in cells; host or cells: H295R cells
T2 sequence (P05093 1-508): T1 sequence (P05093 1-508)
Summary of the method: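 H295R cells cultured 24 h, then exposed to compound at 100, 10, 1, 0.1 nM final in serum-free DMEM/F-12 with ITS+ and 0.1% methanol for 24 h at 37 °C. Medium testosterone measured by ELISA and plotted against compound concentration.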

[3] = tested on: rat Cyp11B enzyme (rat adrenal mitochondria); assay: CYP11B enzymatic assay (% inhibition at 100 nM) (Biological Example 9); format: biochemical; settings: for CYP11B enzymatic assay % inhibition at 100 nM (Biological Example No. 9): compound at 100 nM
Experimental: Adrenals excised from Sprague Dawley rats were homogenized, and mitochondria fraction were prepared by a series of centrifugation as described in Shuji Ohno, et al. J. of Steroid Biochemistry & Molecular Biology 2002, 80, 355-363. Prepared mitochondria protein was washed and resuspended in Buffer B (0.21 M mannitol, 70 mM sucrose, 5 mM MgCl2, 0.5 mM CaCl2, 20 mM Tris-HCl (pH 7.4) and 1 mM DTT, […]). The protein concentration was determined by BCA assay and stored as 10 μL aliquots at −80° C.
The rat Cyp11B enzyme assay was performed in 96-well plates. Typical assays were carried out in total 50 μL volume that included test compounds at 100 nM concentration, 1× Buffer B, 0.5 mM NADPH, 0.1 μM 11-deoxycortisol, and 2 μL of prepared rat adrenal mitochondria (added last). Reaction without test compound served as positive control and reaction without NADPH served as negative control. Reactions were allowed to incubate at 37° C. for 60 min with gentle shaking. The reaction was stopped by directly applying the enzymatic reaction mixture (1:5 diluted in ELISA assay buffer) to ELISA plate for evaluation of cortisol concentration according to manufacturer's protocol (Assay Design).
The mean absorbance value for each sample was used to determine the corresponding concentration from the standard curve. Amount of cortisol in the negative control (reaction that dis not include NADPH) was subtracted from total cortisol. Percent inhibition (inhibition %) of the compound was calculated using normalized cortisol concentration based on following formula: 100−([Cortisol] of compound/[Cortisol] of positive control *100).

[4] = target: T1, CYP17 (human testicular microsome); assay: CYP17 enzymatic assay (% inhibition at 1 nM) (Biological Example 12); format: biochemical
[5] = Human liver microsome stability assay (Biological Example 8b); settings: liver microsomes, pH 7.4
[6] = target: T3, Cyp21 enzyme (Human HEK 293-Cyp21 stable transfected cells) (Homo sapiens, UniProt P08686); assay: CYP21-HEK293 enzymatic assay (IC50) (Biological Example 11); format: cell-based; settings: HEK 293-Cyp21 cells; read-out: CYP21-HEK293 enzymatic assay IC50 (Biological Example No. 11)
T3 construct: expressed in transfected cells
T3 sequence (P08686 1-495): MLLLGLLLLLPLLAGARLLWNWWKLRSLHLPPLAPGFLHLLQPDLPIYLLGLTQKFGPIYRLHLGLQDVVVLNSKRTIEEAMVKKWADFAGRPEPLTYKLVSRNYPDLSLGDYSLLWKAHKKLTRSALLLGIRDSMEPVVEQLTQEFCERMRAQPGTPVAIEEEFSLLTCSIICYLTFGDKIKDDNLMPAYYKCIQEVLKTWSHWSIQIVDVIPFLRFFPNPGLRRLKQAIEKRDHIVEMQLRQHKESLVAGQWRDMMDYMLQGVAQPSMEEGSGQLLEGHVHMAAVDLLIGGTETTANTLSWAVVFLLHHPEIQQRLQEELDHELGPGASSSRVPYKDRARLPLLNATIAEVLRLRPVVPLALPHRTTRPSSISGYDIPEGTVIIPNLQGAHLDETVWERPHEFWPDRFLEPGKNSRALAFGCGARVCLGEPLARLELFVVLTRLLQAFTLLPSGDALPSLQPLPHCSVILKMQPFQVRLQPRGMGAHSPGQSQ

[7] = read-out: CYP17 enzymatic assay IC50 (Biological Example No. 4)
[8] = compound at 1 nM, read-out: CYP17 enzymatic assay % inhibition at 1 nM (Biological Example No. 12)

IC50 ([1]; DHEA by ELISA, read-out: Biological Example No. 4: CYP17 enzymatic assay IC50) | inhibition at 0.01 µM [2] | IC50 (CYP17 (H295R cells); testosterone by ELISA, 24 hours, read-out: Biological Example No. 7: CYP17 cellular assay IC50) | inhibition at 0.001 µM ([4]; 1 nM compound, DHEA by ELISA, read-out: Biological Example No. 12: CYP17 percent inhibition at 1 nM) | half-life at 1 μM [5] | IC50 [1, 7] | IC50 [6] | inhibition at 0.001 µM [4, 8] | IC50 (CYP17 (H295R cells); testosterone, read-out: CYP17 cellular assay IC50 (Biological Example No. 7)) | Compound | Biological Example No. 9: CYP11B percent inhibition at 100 nM ([3]; 100 nM compound, cortisol by ELISA) | CYP11B enzymatic assay % inhibition at 100 nM (Biological Example No. 9) [3]
< 11 nM | > 80% | < 15 nM | > 50% | 1 to 50 min |  |  |  |  | C[C@]12CC[C@H](O)CC1=CC[C@@H]1[C@@H]2CC[C@]2(C)C(c3cccnc3)=CC[C@@H]12 [C, (3S,8R,9S,10R,13S,14S)-10,13-dimethyl-17-(pyridin-3-yl)-2,3,4,7,8,9,10,11,12,13,14,15-dodecahydro-1H-cyclopenta[a]phenanthren-3-ol, reference compound] | T (T means the compound had a percent inhibition of less than 32% when tested at 100 nM) | 
 |  |  |  |  | < 11 nM | > 1000 nM | 10 to 50% |  | CCC(=O)N1CCC[C@@]2(C)C(CCC3C2CC[C@]2(C)C(c4cccnc4)=CCC32)C1 (stereo partly drawn) [Compound 435, 1-((5aR,7aS)-5a,7a-dimethyl-8-(pyridin-3-yl)-3,4,5,5a,5b,6,7,7a,10,10a,10b,11,12,12a-tetradecahydrocyclopenta[5,6]naphtho[2,1-c]azepin-2(1H)-yl)propan-1-one] |  | U (U means the compound had a percent inhibition of greater than or equal to 32%)
 |  |  |  |  | < 11 nM | > 1000 nM | 10 to 50% |  | CCC(=O)N1CCC2CCC3C(CC[C@]4(C)C(c5cccnc5)=CCC34)[C@@]2(C)CC1 (stereo partly drawn) [Compound 436, 1-((5aS,7aS)-5a,7a-dimethyl-8-(pyridin-3-yl)-1,2,5,5a,5b,6,7,7a,10,10a,10b,11,12,12a-tetradecahydrocyclopenta[5,6]naphtho[1,2-d]azepin-3(4H)-yl)propan-1-one] |  | T (T means the compound had a percent inhibition of less than 32% when tested at 100 nM)
 |  |  |  |  | < 11 nM | 10 to 100 nM | 10 to 50% |  | CCC(=O)N1CCC[C@@]2(C)[C@@H](CC[C@@H]3[C@@H]2CC[C@]2(C)C(n4ccnc4)=CC[C@@H]32)C1 [Compound 441, 1-((5aR,5bS,7aS,10aS,10bR,12aR)-8-(1H-imidazol-1-yl)-5a,7a-dimethyl-3,4,5,5a,5b,6,7,7a,10,10a,10b,11,12,12a-tetradecahydrocyclopenta[5,6]naphtho[2,1-c]azepin-2(1H)-yl)propan-1-one] |  | U (U means the compound had a percent inhibition of greater than or equal to 32%)
 |  |  |  |  |  |  | 10 to 50% | < 15 nM | Cc1ccncc1C1=CCC2C3CN(C)C4=CC(=O)CC[C@]4(C)C3CC[C@]12C (stereo partly drawn) [Compound 444, (9aR,11aS)-5,9a,11a-trimethyl-1-(4-methylpyridin-3-yl)-3b,4,5,8,9,9a,9b,10,11,11a-decahydro-3H-cyclopenta[i]phenanthridin-7(3aH)-one] |  | U (U means the compound had a percent inhibition of greater than or equal to 32%)
